Results on 4 molecules are retold here after US20220218852A1, “NOVEL RADIOLABELLED CXCR4-TARGETING COMPOUNDS FOR DIAGNOSIS AND THERAPY” (PROVINCIAL HEALTH SERVICES AUTHORITY, priority 2019, published 2022).

For orientation: IC50 means the concentration needed to halve the response being measured.

Assay [1] deals with T1, CXCR4 (Homo sapiens, UniProt P61073).
T1 construct: expressed in transfected cells; host or cells: CHO:CXCR4 cells (gift from NIH); CHO:WT used as the control line
Briefly: Competition binding assay ([^125I]SDF-1α, CHO:CXCR4 cells). Conditions: competitive binding vs [^125I]SDF-1α, read-out: IC50 (nM), binding affinity for CXCR4. The procedure: The binding affinities of nonlabelled peptides for CXCR4 were determined using a competition binding assay using the CHO:CXCR4 cells. Briefly, CHO:CXCR4 cells (200,000 cells/well) were plated in a 24-well BioCoat™ Poly-D-Lysine Multiwell Plates (Corning) the previous night. The next day, each well was incubated with RPMI-1640 medium (Life Technologies Corporations) supplemented with 20 mM HEPES and 2 mg/mL BSA, [^125I]SDF-1α (0.01 nM, Perkin Elmer) and competing non-radioactive ligands ([…]) and incubated for 1-1.5 hours at 27° C. with moderate shaking. After incubation, the cells were washed with ice-cold PBS twice, trypsinized and counted on a Perkin Elmer WIZARD 2480 gamma counter. IC50 values were determined by a nonlinear regression analysis to fit a logistic equation to the competition data using GraphPad Prism 7.

Assay [2] deals with T1, CXCR4. Conditions: Peng et al. 2015; read-out: IC50, block SDF-1a binding to CXCR4; cited from earlier work.

Like-named read-outs stand apart in the source and are kept apart here. Positions of bridges follow the written chain, without caps; N, C: chain ends. Non-standard residues stand in square brackets, D forms with d. Residues, ends and D or L forms follow the SMILES beside them. Groups on a side chain read outwards from the residue. Chains are numbered I, II in the order given. *: point of attachment. X5 = C[N+](C)(Cc1cn(CC(=O)*)nn1)C[B-](F)(F)F; 2Nal = N[C@@H](Cc1ccc2ccccc2c1)C(=O)O; X3 = C[N+](C)(CCCC(=O)*)C[B-](F)(F)F; Lys(iPr) = CC(C)NCCCC[C@H](N)C(=O)O

T1 sequence (P61073 whole entry): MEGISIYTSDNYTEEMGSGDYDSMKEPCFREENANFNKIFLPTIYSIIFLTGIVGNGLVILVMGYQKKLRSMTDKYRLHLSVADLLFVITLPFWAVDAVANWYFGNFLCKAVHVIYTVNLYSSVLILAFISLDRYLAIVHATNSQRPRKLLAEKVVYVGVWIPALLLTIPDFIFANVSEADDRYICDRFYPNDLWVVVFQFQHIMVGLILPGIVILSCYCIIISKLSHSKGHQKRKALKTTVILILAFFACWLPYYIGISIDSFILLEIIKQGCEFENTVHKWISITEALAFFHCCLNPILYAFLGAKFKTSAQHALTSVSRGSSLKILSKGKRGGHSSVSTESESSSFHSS

For the molecule `CC(C)NCCCC[C@@H]1NC(=O)[C@H](Cc2ccc(O)cc2)NC(=O)[C@H](Cc2ccccc2)NC(=O)CC[C@H](C(=O)N[C@@H](CCCCNC(C)C)C(=O)N[C@@H](CCCCNC(=O)[C@H](CCC(=O)O)NC(=O)[C@H](CCC(=O)O)NC(=O)[C@H](CCC(=O)O)NC(=O)[C@H](CCCCNC(=O)[C@H](CCC(=O)O)NC(=O)Cn2cc(C[N+](C)(C)C[B-](F)(F)F)nn2)NC(=O)[C@H](CCC(=O)O)NC(=O)Cn2cc(C[N+](C)(C)C[B-](F)(F)F)nn2)C(N)=O)NC(=O)CNC(=O)[C@H](Cc2ccc3ccccc3c2)NC(=O)[C@@H](CCCNC(=N)N)NC1=O` [BL04] (I: FY[Lys(iPr)][dR][2Nal]G[dE][Lys(iPr)]K-NH2 / II: X5-EK([Glu-X5])EEE; amide I:9-II:C; lactam I:N-I:7), the IC50 at CXCR4 [1] came out at 63 ± 9 nM.
Take `CC(C)NCCCC[C@@H]1NC(=O)[C@H](Cc2ccc(O)cc2)NC(=O)[C@H](Cc2ccccc2)NC(=O)CC[C@H](C(=O)N[C@@H](CCCCNC(C)C)C(=O)N[C@@H](CCCCNC(=O)[C@H](CCC(=O)O)NC(=O)[C@H](CCC(=O)O)NC(=O)[C@H](CCC(=O)O)NC(=O)CCC[N+](C)(C)C[B-](F)(F)F)C(N)=O)NC(=O)CNC(=O)[C@H](Cc2ccc3ccccc3c2)NC(=O)[C@@H](CCCNC(=N)N)NC1=O` [BL08] (FY[Lys(iPr)][dR][2Nal]G[dE][Lys(iPr)]K([Glu-Glu-Glu-X3])-NH2; lactam N-7): the IC50 on CXCR4 [1] was found to be 11.6 ± 7 nM.
The same measure, in the same setting: the result for `CC(C)NCCCC[C@@H]1NC(=O)[C@H](Cc2ccc(O)cc2)NC(=O)[C@H](Cc2ccccc2)NC(=O)CC[C@H](C(=O)N[C@@H](CCCCNC(C)C)C(=O)N[C@@H](CCCCNC(=O)[C@H](CCC(=O)O)NC(=O)[C@H](CCC(=O)O)NC(=O)[C@H](CCC(=O)O)NC(=O)Cn2cc(C[N+](C)(C)C[B-](F)(F)F)nn2)C(N)=O)NC(=O)CNC(=O)[C@H](Cc2ccc3ccccc3c2)NC(=O)[C@@H](CCCNC(=N)N)NC1=O` [BL09] (FY[Lys(iPr)][dR][2Nal]G[dE][Lys(iPr)]K([Glu-Glu-Glu-X5])-NH2; lactam N-7) reads 13.4 ± 2.3 nM.
For the molecule “cyclo[Phe-Tyr-Lys(iPr)-D-Arg-2-NaI-Gly-D-Glu]-Lys(iPr)-NH2 [LY2510924]”, the IC50 at CXCR4 [2] is 0.079 nM.
